This is an account of results in patent publication US20250171463A1 (BIOGEN MA INC., priority 2022, published 2025).

This experiment addresses T1, EBP (Homo sapiens, UniProt Q15125).
T1 construct: HEK293T cells were utilized as the source of EBP enzyme; endogenous in cells; host or cells: HEK293T
The experiment in a line: EBP Functional Assay (EBP immunoaffinity LC-MS assay). Type of experiment: biochemical. Conditions: EBP enzyme from HEK293T cells; 30 min with inhibitor, then zymosterol-d5, 37° C., 4 h; percent conversion to dehydrolathosterol-d5 by LC-APCI MRM MS. The procedure, abridged: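 IC50 comes from a 4-parameter logistic fit of zymosterol-d5-to-product percent conversion, measured by LC-APCI MRM MS after sterol extraction. Compounds were preincubated 30 min with EBP from HEK293T cells before deuterated substrate was added for 4 h at 37° C; Tasin-1 served as reference.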

pIC50: −log10 of the molar value. Some results are limits rather than exact numbers.

T1 sequence (Q15125 whole entry): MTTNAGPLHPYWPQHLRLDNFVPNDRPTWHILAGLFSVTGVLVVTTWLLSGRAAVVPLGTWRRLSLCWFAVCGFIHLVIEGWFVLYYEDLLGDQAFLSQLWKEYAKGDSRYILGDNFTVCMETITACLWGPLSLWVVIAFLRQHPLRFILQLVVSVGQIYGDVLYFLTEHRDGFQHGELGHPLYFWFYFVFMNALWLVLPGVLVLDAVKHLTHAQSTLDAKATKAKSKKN

Usually pIC50 stands for the IC50 on a negative log10 scale, so that one unit is a factor of ten. A low value points to a large IC50. In turn, `Cc1nc(OC(F)F)ccc1S(=O)(=O)N1CC2(CN(C3CCOCC3)C2)C1` [Example 94, 2-((6-(difluoromethoxy)-2-methylpyridin-3-yl)sulfonyl)-6-(tetrahydro-2H-pyran-4-yl)-2,6-diazaspiro[3.3]heptane] had a pIC50 of over 7.00.

On to `Cc1nc(OC(F)F)ccc1S(=O)(=O)N1CC2(CN(C3CC4(COC4)C3)C2)C1` [Example 95, 2-((6-(difluoromethoxy)-2-methylpyridin-3-yl)sulfonyl)-6-(2-oxaspiro[3.3]heptan-6-yl)-2,6-diazaspiro[3.3]heptane], for which the negative logarithm of the IC50 (pIC50) is 6.60 to 7.00.

`Cn1nc(C(F)F)cc1S(=O)(=O)N1CC2(CN(C3CCOCC3)C2)C1` [Example 96, 2-((3-(difluoromethyl)-1-methyl-1H-pyrazol-5-yl)sulfonyl)-6-(tetrahydro-2H-pyran-4-yl)-2,6-diazaspiro[3.3]heptane] had a negative logarithm of the IC50 (pIC50) of 6.60 to 7.00.

As for `COc1cc(S(=O)(=O)N2CC3(CN(C4CCOCC4)C3)C2)n(C)n1` [Example 97, 2-((3-methoxy-1-methyl-1H-pyrazol-5-yl)sulfonyl)-6-(tetrahydro-2H-pyran-4-yl)-2,6-diazaspiro[3.3]heptane], the pIC50 is 5.40 to 6.60.

The compound `COc1ccc(S(=O)(=O)N2CC3(CN(C4CCOCC4)C3)C2)c(Cl)n1` [Example 98, 2-((2-chloro-6-methoxypyridin-3-yl)sulfonyl)-6-(tetrahydro-2H-pyran-4-yl)-2,6-diazaspiro[3.3]heptane] had a pIC50 of over 7.00.

On to `COc1ncc(Cl)cc1S(=O)(=O)N1CC2(CN(C3CCOCC3)C2)C1` [Example 99, 2-((5-chloro-2-methoxypyridin-3-yl)sulfonyl)-6-(tetrahydro-2H-pyran-4-yl)-2,6-diazaspiro[3.3]heptane], for which the pIC50 was over 7.00.

In the case of `Cc1cc(C(F)(F)F)nc(C)c1S(=O)(=O)N1CC2(CN(C3CCOCC3)C2)C1` [Example 100, 2-((2,4-dimethyl-6-(trifluoromethyl)pyridin-3-yl)sulfonyl)-6-(tetrahydro-2H-pyran-4-yl)-2,6-diazaspiro[3.3]heptane], the pIC50 is over 7.00.

In turn, `Cc1cc(C(F)(F)F)nc(C)c1S(=O)(=O)N1CC2(CN(C3CC4(COC4)C3)C2)C1` [Example 101, 2-((2,4-dimethyl-6-(trifluoromethyl)pyridin-3-yl)sulfonyl)-6-(2-oxaspiro[3.3]heptan-6-yl)-2,6-diazaspiro[3.3]heptane] gave a pIC50 of 6.60 to 7.00.

As to `Cc1cc(C(F)(F)F)nc(C)c1S(=O)(=O)N1CC2(CN(CC3CCOCC3)C2)C1` [Example 102], the pIC50 is over 7.00.

With `Cc1cc(C(F)(F)F)nc(C)c1S(=O)(=O)N1CC2(CN(CC3COC3)C2)C1` [Example 104], the pIC50 is 6.60 to 7.00.

`Cc1ccc(S(=O)(=O)N2CC3(CN(C4CCOCC4)C3)C2)c(C(F)(F)F)n1` [Example 105, 2-((6-methyl-2-(trifluoromethyl)pyridin-3-yl)sulfonyl)-6-(tetrahydro-2H-pyran-4-yl)-2,6-diazaspiro[3.3]heptane] gave a pIC50 of 6.60 to 7.00.

On to `Cc1ccc(S(=O)(=O)N2CC3(CN(CC4CCOCC4)C3)C2)c(C(F)(F)F)n1` [Example 106, 2-((6-methyl-2-(trifluoromethyl)pyridin-3-yl)sulfonyl)-6-((tetrahydro-2H-pyran-4-yl)methyl)-2,6-diazaspiro[3.3]heptane], for which the pIC50 is 6.60 to 7.00.

Compound `O=S(=O)(c1ccc(C2CC2)nc1C(F)(F)F)N1CC2(CN(C3CCOCC3)C2)C1` [Example 107, 2-((6-cyclopropyl-2-(trifluoromethyl)pyridin-3-yl)sulfonyl)-6-(tetrahydro-2H-pyran-4-yl)-2,6-diazaspiro[3.3]heptane] showed a pIC50 of over 7.00.

With `O=S(=O)(c1ccc(C2CC2)nc1C(F)(F)F)N1CC2(CN(CC3CCOCC3)C2)C1` [Example 108, 2-((6-cyclopropyl-2-(trifluoromethyl)pyridin-3-yl)sulfonyl)-6-((tetrahydro-2H-pyran-4-yl)methyl)-2,6-diazaspiro[3.3]heptane], the pIC50 was over 7.00.

Turning to `O=S(=O)(c1ccc(C(F)(F)F)nc1C(F)(F)F)N1CC2(CN(C3CCOCC3)C2)C1` [Example 109, 2-((2,6-bis(trifluoromethyl)pyridin-3-yl)sulfonyl)-6-(tetrahydro-2H-pyran-4-yl)-2,6-diazaspiro[3.3]heptane], the pIC50 is 5.40 to 6.60.

Compound `O=S(=O)(c1ccc(C(F)(F)F)nc1C(F)(F)F)N1CC2(CN(C3CC4(COC4)C3)C2)C1` [Example 110] gave a pIC50 of 5.40 to 6.60.

`O=S(=O)(c1ccc(C(F)(F)F)nc1C(F)(F)F)N1CC2(CN(CC3CCOCC3)C2)C1` [Example 111] showed a pIC50 of over 7.00.

Regarding `O=S(=O)(c1ccc(C(F)(F)F)nc1C(F)(F)F)N1CC2(CN(CC3COC3)C2)C1` [Example 112], the pIC50 is 5.40 to 6.60.

As for `Cc1nc(C(F)(F)F)ccc1S(=O)(=O)N1CC2(CN(CC3CC4(COC4)C3)C2)C1` [Example 113], the pIC50 was 6.60 to 7.00.

Turning to `Cc1nc(C(C)(F)F)ccc1S(=O)(=O)N1CC2(CN(CC3CC4(COC4)C3)C2)C1` [Example 114], the pIC50 is over 7.00.

In the case of `Cn1nc(C(F)(F)F)cc1S(=O)(=O)N1CC2(CN(CC3CC4(COC4)C3)C2)C1` [Example 115], the pIC50 is over 7.00.

`O=S(=O)(c1ccc(C(F)F)nc1C1CC1)N1CC2(CN(C3CCOCC3)C2)C1` [Example 116, 2-((2-cyclopropyl-6-(difluoromethyl)pyridin-3-yl)sulfonyl)-6-(tetrahydro-2H-pyran-4-yl)-2,6-diazaspiro[3.3]heptane] showed a pIC50 of over 7.00.

For the compound `O=S(=O)(c1ccc(C(F)F)nc1C1CC1)N1CC2(CN(C3CC4(COC4)C3)C2)C1` [Example 119, 2-((2-cyclopropyl-6-(difluoromethyl)pyridin-3-yl)sulfonyl)-6-(2-oxaspiro[3.3]heptan-6-yl)-2,6-diazaspiro[3.3]heptane], the pIC50 is 6.60 to 7.00.

The compound `O=S(=O)(c1cc(C(F)F)nn1C1CC1)N1CC2(CN(C3CCOCC3)C2)C1` [Example 120, 2-((1-cyclopropyl-3-(difluoromethyl)-1H-pyrazol-5-yl)sulfonyl)-6-(tetrahydro-2H-pyran-4-yl)-2,6-diazaspiro[3.3]heptane] had a pIC50 of 6.60 to 7.00.

As for `O=S(=O)(c1cnc(C(F)(F)F)cc1C1CC1)N1CC2(CN(C3CC4(COC4)C3)C2)C1` [Example 121, 2-((4-cyclopropyl-6-(trifluoromethyl)pyridin-3-yl)sulfonyl)-6-(2-oxaspiro[3.3]heptan-6-yl)-2,6-diazaspiro[3.3]heptane], the pIC50 was 5.40 to 6.60.

The compound `O=S(=O)(c1cnc(C(F)(F)F)cc1C1CC1)N1CC2(CN(CC3CCOCC3)C2)C1` [Example 122, 2-((4-cyclopropyl-6-(trifluoromethyl)pyridin-3-yl)sulfonyl)-6-((tetrahydro-2H-pyran-4-yl)methyl)-2,6-diazaspiro[3.3]heptane] showed a pIC50 of over 7.00.

As to `CCc1cc(C(F)(F)F)ncc1S(=O)(=O)N1CC2(CN(C3CC4(COC4)C3)C2)C1` [Example 125, 2-((4-ethyl-6-(trifluoromethyl)pyridin-3-yl)sulfonyl)-6-(2-oxaspiro[3.3]heptan-6-yl)-2,6-diazaspiro[3.3]heptane], the pIC50 was 5.40 to 6.60.

The compound `CCc1cc(C(F)(F)F)ncc1S(=O)(=O)N1CC2(CN(CC3CCOCC3)C2)C1` [Example 126, 2-((4-ethyl-6-(trifluoromethyl)pyridin-3-yl)sulfonyl)-6-((tetrahydro-2H-pyran-4-yl)methyl)-2,6-diazaspiro[3.3]heptane] had a pIC50 of 5.40 to 6.60.
